# In patent publication US20130072385A1, “METHODS FOR DELAYING BUD BREAK BY APPLYING ABA ANALOGS” (priority 2011, published 2013):
# Experiments:
# [1] = test system: Concord grapevines; experiment: Fall soil drench of potted Concord grapevines, bud break the following spring; format: in vivo; settings: 1000 ppm (1000 mg/pot) fall soil drench
# Description: A study was conducted to determine the effect of application of ABA or ABA analog as a soil drench in the fall on bud break of potted Concord grapevines the following spring. Two year old eco-dormant Concord grapevines were obtained from a Concord Nurseries in the spring. Bare-root vines were planted in 14 liter pots filled with Promix BX (available from Premier Horticulture Inc. Quakertown, Pa.) and grown outside for about 5 months (May October) prior to treatment. Plants received irrigation as needed and fertilized weekly (1 g/L all purpose fertilizer 20-20-20, The Scotts Company, Marysville, Ohio). Uniform plants were selected for the study. A total of 1000 mL of water or chemical solution was applied to the soil of each plant.
# After chemical treatment, the ten replicate plants per treatment were arranged in a randomized complete block experimental design. The potted vines were surrounded by bark chips the depth of the soil in the pot to insulate the roots and prevent cold damage. The plants became dormant for the winter. In the following spring the vines were pruned to 5 buds per vine before bud break and bud break was monitored over time (Table 4). The buds were rated for bud break periodically on a scale from 1 for no growth to 6 for three or more leaves showing
# Potted Concord grapevines were treated with 1000 mL water, solution containing 1000 mg ABA or solution containing 100 mg PBI-429. The dose of RBI-429 was used at one-tenth of ABA dose based on the preliminary results.
# [2] = test system: PF-11 nectarine trees; experiment: Fall foliar spray of PF-11 nectarine trees, fruit number per tree the following spring; format: in vivo; settings: 10,000 ppm in 0.1% Brij 98, fall foliar application; June 10
# Description: (§1) A study was conducted to determine the effect of spraying nectarine trees with ABA or ABA analogs in the fall on bud break the following spring. Mature PF-11 nectarine trees were sprayed to drip with surfactant alone or surfactant and ABA or ABA analog on Oct. 19, 2009. Trees were sprayed with approximately 500 ml (20.5 grams ABA analog/acre) applied to each of 6 trees per treatment arranged in a randomized complete block design. The following spring bud break on pre-selected branches was monitored.
# [3] = test system: Canadice grapevines; experiment: Soil drench of potted grapevines near the time of bud break, Canadice; format: in vivo
# Description: (§2) A study was conducted to determine the effect of ABA applied to the soil of potted grapevines near the time of bud break. Eco-dormant bare-root Seyval Blanc and Canadice grapevines were purchased from Concord Nurseries, North Collins, N.Y. Vines were planted in pots of Promix potting mixture and held in a 5° C. dark chamber prior to treatment. Plants were moved from the 5° C. chamber to a greenhouse set to 20° C. night/25° C. day with a 12 hour light and 12 hour dark light cycle to promote bud break. One group of 5 plants was treated with 250 ml of 1000 ppm ABA (250 mg) as a soil drench 2 days after moving the vines to warm conditions. Another group of vines was treated 6 days after warming and another group of 5 plants was treated 10 days after warming. With the Seyval Blanc grapevines one group of 5 plants was treated at all 3 timings 2, 6, and 10 days after warming (750 mg total). Another group of 5 vines was not treated and acted as an untreated control. […]
# [4] = test system: Seyval Blanc grapevines; experiment: Soil drench of potted grapevines near the time of bud break, Seyval Blanc; format: in vivo
# Description: as §2
# [5] = test system: perennial plant; experiment: Applicants' field studies over several years on perennial plant bud break; format: in vivo; settings: even at high levels, at every application time
# Excerpt: In order to determine the role ABA had on perennial plant bud break, Applicants conducted field studies for several years. After many experiments.
# [6] = test system: PF-11 nectarine trees; experiment: Fall foliar spray of PF-11 nectarine trees, bud break the following spring; format: in vivo; settings: 10,000 ppm in 0.1% Brij 98, fall foliar application; April 8
# Description: as §1
# [7] = test system: Concord grape vines; experiment: Spring spray of eco-dormant field grown Concord grape vines, bud break; format: in vivo, Concord grapevines; settings: sprayed 2 times in spring
# Description: A study was conducted to evaluate the effect of spraying eco-dormant Concord grape vines with ABA or ABA analog plus surfactants on bud break. Mature field grown Concord grape vines were sprayed to runoff 2 times in the spring after pruning and before bud swell. Three replicates of 3 vines each were treated with each treatment solution. Treatments were arranged in a randomized complete block design down a single vineyard row, Bud break was monitored by counting the number of broken buds of the distal 5 buds on 4 proximal canes on the middle vine of each 3 vine replicate. Bud break was only very slightly delayed by any of the treatments compared to the water sprayed control (Table 1).
# [8] = 1000 ppm soil drench 2 days after warming, evaluated 13 days after warming
# [9] = 1000 ppm soil drench 2 days after warming, evaluated 14 days after warming
# [10] = 1000 ppm soil drench 2 days after warming, evaluated 15 days after warming
# [11] = 1000 ppm soil drench 2 days after warming, evaluated 16 days after warming
# [12] = 1000 ppm soil drench 6 days after warming, evaluated 13 days after warming
# [13] = 1000 ppm soil drench 6 days after warming, evaluated 14 days after warming
# [14] = 1000 ppm soil drench 6 days after warming, evaluated 15 days after warming
# [15] = 1000 ppm soil drench 6 days after warming, evaluated 16 days after warming
# [16] = 1000 ppm soil drench 10 days after warming, evaluated 13 days after warming
# [17] = 1000 ppm soil drench 10 days after warming, evaluated 14 days after warming
# [18] = 1000 ppm soil drench 10 days after warming, evaluated 15 days after warming
# [19] = 1000 ppm soil drench 10 days after warming, evaluated 16 days after warming
substance,measurement,setting,value
"(S)-5-(1-hydroxy-2,6,6)-trimethyl-4-oxo-2-cyclohexen-1-yl)-3-methyl-(2 Z,4E)-pentadienoic acid [ABA]",Average rating of bud break (1-6 scale),"[1]; Apr. 23, 2008",1.0
same,Average rating of bud break (1-6 scale),[1]; April 28,1.6
same,Average rating of bud break (1-6 scale),[1]; April 30,1.8
same,Average rating of bud break (1-6 scale),[1]; May 2,1.8
same,Average rating of bud break (1-6 scale),[1]; May 5,2.1
same,Average rating of bud break (1-6 scale),[1]; May 7,2.6
same,Average rating of bud break (1-6 scale),[1]; May 9,2.9
same,Average rating of bud break (1-6 scale),[1]; May 12,3.0
same,Average rating of bud break (1-6 scale),[1]; May 14,3.0
same,Average rating of bud break (1-6 scale),[1]; May 16,3.4
same,Average rating of bud break (1-6 scale),[1]; May 19,4.2
same,Average rating of bud break (1-6 scale),[1]; May 21,4.6
same,Average rating of bud break (1-6 scale),[1]; May 23,4.9
same,Average rating of bud break (1-6 scale),[1]; May 28,5.4
same,Average number of fruit per tree,[2],55
same,Average number of broken buds per vine,[3]; [8],0
same,Average number of broken buds per vine,[3]; [9],0
same,Average number of broken buds per vine,[3]; [10],0.8
same,Average number of broken buds per vine,[3]; [11],1.2
same,Average number of broken buds per vine,"[3]; 1000 ppm soil drench 2 days after warming, evaluated 17 days after warming",1.7
same,Average number of broken buds per vine,"[3]; 1000 ppm soil drench 2 days after warming, evaluated 18 days after warming",1.7
same,Average number of broken buds per vine,[3]; [12],0.2
same,Average number of broken buds per vine,[3]; [13],0.7
same,Average number of broken buds per vine,[3]; [14],1.2
same,Average number of broken buds per vine,[3]; [15],1.7
same,Average number of broken buds per vine,"[3]; 1000 ppm soil drench 6 days after warming, evaluated 17 days after warming",2.3
same,Average number of broken buds per vine,"[3]; 1000 ppm soil drench 6 days after warming, evaluated 18 days after warming",2.5
same,Average number of broken buds per vine,[3]; [16],0.5
same,Average number of broken buds per vine,[3]; [17],1.8
same,Average number of broken buds per vine,[3]; [18],2.3
same,Average number of broken buds per vine,[3]; [19],2.3
same,Average number of broken buds per vine,"[3]; 1000 ppm soil drench 10 days after warming, evaluated 17 days after warming",2.3
same,Average number of broken buds per vine,"[3]; 1000 ppm soil drench 10 days after warming, evaluated 18 days after warming",2.7
same,Average number of broken buds per vine,"[4]; 1000 ppm soil drench 2, 6 and 10 days after warming, evaluated 13 days after warming",1.2
same,Average number of broken buds per vine,"[4]; 1000 ppm soil drench 2, 6 and 10 days after warming, evaluated 14 days after warming",4.4
same,Average number of broken buds per vine,"[4]; 1000 ppm soil drench 2, 6 and 10 days after warming, evaluated 15 days after warming",4.8
same,Average number of broken buds per vine,"[4]; 1000 ppm soil drench 2, 6 and 10 days after warming, evaluated 16 days after warming",7.0
same,Delay of bud break,"[4]; 1000 ppm soil drench 13-16 days before bud break, cultivar not stated (Seyval Blanc and Canadice study)",3.5 days
same,Average number of broken buds per vine,[4]; [8],0.4
same,Average number of broken buds per vine,[4]; [9],2.2
same,Average number of broken buds per vine,[4]; [10],3.6
same,Average number of broken buds per vine,[4]; [11],6.8
same,Average number of broken buds per vine,[4]; [12],0.2
same,Average number of broken buds per vine,[4]; [13],1.6
same,Average number of broken buds per vine,[4]; [14],2.6
same,Average number of broken buds per vine,[4]; [15],6.8
same,Average number of broken buds per vine,[4]; [16],1.8
same,Average number of broken buds per vine,[4]; [17],6.0
same,Average number of broken buds per vine,[4]; [18],8.6
same,Average number of broken buds per vine,[4]; [19],11.4
same,Effect on bud break,[5],no appreciable effect on bud break
same,Percentage of broken floral buds,[6],78 Percentage
same,Average percent broken buds,"[7]; April 24, 1,000 ppm ABA plus 0.5% Brij 98",8%
same,Average percent broken buds,"[7]; April 24, 1,000 ppm plus 0.5% Pentrabark",2%
same,Average percent broken buds,"[7]; April 24, 10,000 ppm ABA plus 0.5% Brij 98",5%
same,Average percent broken buds,"[7]; April 30, 1,000 ppm ABA plus 0.5% Brij 98",13%
same,Average percent broken buds,"[7]; April 30, 1,000 ppm plus 0.5% Pentrabark",13%
same,Average percent broken buds,"[7]; April 30, 10,000 ppm ABA plus 0.5% Brij 98",18%
